In patent US12209087B2, “AKT1 modulators” (Alterome Therapeutics, Inc., priority 2022, dated 2025) one finds IC50 data, which are given here for twelve molecules.

Bounds are passed on as bounds.

T1 sequence (P31749 whole entry E17K): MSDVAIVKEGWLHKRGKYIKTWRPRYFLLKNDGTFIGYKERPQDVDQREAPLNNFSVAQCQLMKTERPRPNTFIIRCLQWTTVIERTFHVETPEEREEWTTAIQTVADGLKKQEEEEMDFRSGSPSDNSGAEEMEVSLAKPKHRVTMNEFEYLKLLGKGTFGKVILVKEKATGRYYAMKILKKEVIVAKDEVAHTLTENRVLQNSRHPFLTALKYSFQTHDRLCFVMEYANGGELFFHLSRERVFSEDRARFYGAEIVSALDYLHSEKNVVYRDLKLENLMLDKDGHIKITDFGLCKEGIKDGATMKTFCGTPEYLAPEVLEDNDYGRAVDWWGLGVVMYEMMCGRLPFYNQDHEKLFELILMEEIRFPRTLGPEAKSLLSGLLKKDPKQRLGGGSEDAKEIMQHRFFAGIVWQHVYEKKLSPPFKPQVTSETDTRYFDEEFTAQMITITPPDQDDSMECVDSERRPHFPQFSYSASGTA

The test addresses T1, full length AKT E17K (Homo sapiens, UniProt P31749, E17K).
T1 construct: host or cells: HEK-293 (ATCC CRL-1573)
The test can be described thus: NanoBRET Target Engagement (TE) Assay. It is filed as cell-based. The conditions noted are these: competitive tracer displacement in living cells, read-out: AKT1 E17K IC50. The method, boiled down:
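Compound and tracer incubated 2 h before luminescence at donor 450 nm and acceptor 600 nm, with extracellular signal inhibited. EC50 by sigmoidal variable-slope regression.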
(In BRET a luciferase serves as donor, and the signal depends on an acceptor being close.)
A word on the IC50: it is the concentration needed to halve the response being measured. Consider `N#Cc1ccnc(C(=O)NC2CCN(Cc3ccc(-n4c(-c5cccnc5N)nc5ccc(-c6ccccc6)nc54)cc3)CC2)c1` [Example 150, N-(1-(4-(2-(2-Aminopyridin-3-yl)-5-phenyl-3H-imidazo[4,5-b]pyridin-3-yl)benzyl)piperidin-4-yl)-4-cyanopicolinamide], for which the IC50 lay in the range of 60 to 600 nM. Consider `N#Cc1nccc(C(=O)NC2CCN(Cc3ccc(-n4c(-c5cccnc5N)nc5ccc(-c6ccccc6)nc54)cc3)CC2)n1` [Example 151, N-(1-(4-(2-(2-Aminopyridin-3-yl)-5-phenyl-3H-imidazo[4,5-b]pyridin-3-yl)benzyl)piperidin-4-yl)-2-cyanopyrimidine-4-carboxamide], for which the 50% inhibitory concentration (IC50) is less than 15 nM.

As for `N#Cc1nccc(C(=O)N2CCN(Cc3ccc(-n4c(-c5cccnc5N)nc5cccnc54)cc3)CC2)n1` [Example 152, 4-(4-(4-(2-(2-aminopyridin-3-yl)-3H-imidazo[4,5-b]pyridin-3-yl)benzyl)piperazine-1-carbonyl)pyrimidine-2-carbonitrile], the concentration for half-maximal inhibition (IC50) was in the range of 60 to 600 nM. With `N#Cc1ncccc1C(=O)N1CCN(Cc2ccc(-n3c(-c4cccnc4N)nc4cccnc43)cc2)CC1` [Example 153, 3-(4-(4-(2-(2-Aminopyridin-3-yl)-3H-imidazo[4,5-b]pyridin-3-yl)benzyl)piperazine-1-carbonyl)picolinonitrile] the figure was 600 to 10000 nM; with `N#Cc1cnccc1C(=O)N1CCN(Cc2ccc(-n3c(-c4cccnc4N)nc4cccnc43)cc2)CC1` [Example 154, 4-(4-(4-(2-(2-Aminopyridin-3-yl)-3H-imidazo[4,5-b]pyridin-3-yl)benzyl)piperazine-1-carbonyl)nicotinonitrile], 600 to 10000 nM; with `N#Cc1ccncc1C(=O)N1CCN(Cc2ccc(-n3c(-c4cccnc4N)nc4cccnc43)cc2)CC1` [Example 155, 3-(4-(4-(2-(2-Aminopyridin-3-yl)-3H-imidazo[4,5-b]pyridin-3-yl)benzyl)piperazine-1-carbonyl)isonicotinonitrile], 600 to 10000 nM. As for `CN(c1ccnc(C#N)n1)C1CCN(Cc2ccc(-n3c(-c4cccnc4N)nc4ccc(-c5ccccc5)nc43)cc2)CC1` [Example 156, 4-((1-(4-(2-(2-Aminopyridin-3-yl)-5-phenyl-3H-imidazo[4,5-b]pyridin-3-yl)benzyl)piperidin-4-yl)(methyl)amino)pyrimidine-2-carbonitrile], the figure is 15 to 60 nM; as for `N#Cc1ccc(NC2CCN(Cc3ccc(-n4c(-c5cccnc5N)nc5cccnc54)cc3)CC2)cn1` [Example 157, 5-((1-(4-(2-(2-aminopyridin-3-yl)-3H-imidazo[4,5-b]pyridin-3-yl)benzyl)piperidin-4-yl)amino)picolinonitrile], 600 to 10000 nM; as for `N#Cc1cc(NC2CCN(Cc3ccc(-n4c(-c5cccnc5N)nc5ccc(-c6ccccc6)nc54)cc3)CC2)cnn1` [Example 158, 5-((1-(4-(2-(2-Aminopyridin-3-yl)-5-phenyl-3H-imidazo[4,5-b]pyridin-3-yl)benzyl)piperidin-4-yl)amino)pyridazine-3-carbonitrile], 15 to 60 nM.

For `N#Cc1cc(N2CCN(Cc3ccc(-n4c(-c5cccnc5N)nc5ccc(-c6ccccc6)nc54)cc3)CC2)cnn1` [Example 159, 5-(4-(4-(2-(2-Aminopyridin-3-yl)-5-phenyl-3H-imidazo[4,5-b]pyridin-3-yl)benzyl)piperazin-1-yl)pyridazine-3-carbonitrile], the half-inhibitory concentration (IC50) was in the range of 15 to 60 nM.

Turning to `N#Cc1nccnc1C(=O)N1CCN(Cc2ccc(-n3c(-c4cccnc4N)nc4ccc(-c5ccccc5)nc43)cc2)CC1` [Example 163, 3-(4-(4-(2-(2-aminopyridin-3-yl)-5-phenyl-3H-imidazo[4,5-b]pyridin-3-yl)benzyl)piperazine-1-carbonyl)pyrazine-2-carbonitrile], the IC50 is 60 to 600 nM. Turning to `N#Cc1nccnc1C(=O)N1CCN(Cc2ccc(-n3c(-c4cccnc4N)nc4cccnc43)cc2)CC1` [Example 164, 3-(4-(4-(2-(2-Aminopyridin-3-yl)-3H-imidazo[4,5-b]pyridin-3-yl)benzyl)piperazine-1-carbonyl)pyrazine-2-carbonitrile], the IC50 lay within 600 to 10000 nM.
